Measured values as given in patent US11912723B2, “KRAS modulators and uses thereof” (Quanta Therapeutics, Inc., priority 2022, dated 2024).

Test system: AGS (KRAS G12D) cells, phospho-ERK
Assay: pERK In Cell Western (ICW) assay (Method B)
Assay type: cell-based
Conditions: 3 hours
Experimental: pERK ICW is a high throughput screening assay to evaluate the cellular potency of mutant KRAS small molecule inhibitors. KRAS mutant cell line AGS (KRAS^G12D) were purchased from ATCC and maintained in DMEM and RPMI medium supplemented with 10% fetal bovine serum and Penicillin/Streptomycin.
Cells grown in exponential phase were trypsinized, resuspended in fresh media, and viable cells were counted using a cell counter with Trypan Blue (BioRad TC20). Cells were seeded into 384-well plate (Greiner 781091) at density of 5,000 cells/well for AGS and allowed to grow overnight in a 37° C. CO2 incubator. The next day, compounds were dispensed into wells with a ½ log, 10-point serial dilution and top concentration of 10 μM using Tecan D300e dispenser and incubated for 3 hours in a 37° C. CO2 incubator. Cells were then fixed with paraformaldehyde (Electron Microscopy Sciences, 15710, 4% final concentration) for 30 min, permeabilized with wash buffer (1×PBS+0.1% Triton X-100) for 30 min and blocked with Odyssey blocking buffer (Li—COR 927-70001) for 1 hour, all at room temperature (RT). Phospho-ERK antibody (CST 4370L) was diluted 1:500 in Odyssey blocking+0.2% Tween 20 and incubated with cells overnight at 4° C. The next day, plates were washed 5× with wash buffer, incubated with IRDye 800 CW, Goat anti-Rabbit secondary antibody (Li—COR 926-32211, 1:500) and DRAQ5 (CST 4084L, 1:5,000) diluted in Odyssey blocking+0.2% Tween 20 for 1 hour, washed 5×, and imaged on an Odyssey CLx imaging system.
For data analysis, signal intensities from 800 (phosphor-ERK) and 700 (DRAQ5) channels were extracted, and phospho-ERK signals were normalized to DRAQ5 signals for each well and percent of DMSO control values were computed. Data were then imported into Graphpad Prism to compute half-maximal inhibitory concentrations (IC50) using a 4-parameter variable slope model. Z-factor for each plate was computed from signals derived from wells treated with either DMSO or 5 μM of Trametinib. AGS pERK ICW (Method B) IC50 (uM) values of selected compounds are depicted in Table 2 with compounds having a value 0.001 uM to 0.01 uM as ++++; >0.01 uM to 0.1 uM as +++; >0.1 uM to 1 uM as ++; 1 uM to 10 uM as + and >10 uM as NA.

| SMILES | IC50 (Homo sapiens) | IC50 |
| --- | --- | --- |
| OC1CCCN(c2nc(OC[C@@]34CCCN3C[C@H](F)C4)nc3c2COC2(CCc4c(Cl)cccc42)C3)CC1 (mixture of isomers) [Compound 6, 1-[4′-chloro-2-[[rac-(2R,8S)-2-fluoro-1,2,3,5,6,7-hexahydropyrrolizin-8-yl]methoxy]spiro[5,8-dihydropyrano[4,3-d]pyrimidine-7,1′-indane]-4-yl]azepan-4-ol] | > 10 µM | – |
| CN(C)C(=O)c1cc2n(n1)CCCN(c1nc(OC[C@@]34CCCN3C[C@H](F)C4)nc3c1COC1(CCCc4c(Cl)cc(O)cc41)C3)C2 (mixture of isomers) [Compound 43, 5-[5′-chloro-7′-hydroxy-2-[[rac-(2R,8S)-2-fluoro-1,2,3,5,6,7-hexahydropyrrolizin-8-yl]methoxy]spiro[5,8-dihydropyrano[4,3-d]pyrimidine-7,1′-tetralin]-4-yl]-N,N-dimethyl-4,6,7,8-tetrahydropyrazolo[1,5-a][1,4]diazepine-2-carboxamide] | 1 to 10 µM | – |
| C=C1CN2CCCC2(COc2nc3c(c(N4CCCn5nc(C(=O)N(C)C)c(Cl)c5C4)n2)CO[C@@]2(CCc4c(Cl)cccc42)C3)C1 (mixture of isomers) [Compound 54, 3-chloro-N,N-dimethyl-5-[rac-(7S)-4′-chloro-2-[(6-methylene-2,3,5,7-tetrahydro-1H-pyrrolizin-8-yl)methoxy]spiro[5,8-dihydropyrano[4,3-d]pyrimidine-7,1′-indane]-4-yl]-4,6,7,8-tetrahydropyrazolo[1,5-a][1,4]diazepine-2-carboxamide] | 0.1 to 1 µM | – |
| Oc1ccc2c(c1)C1(CCC2)Cc2nc(OC[C@@]34CCCN3C[C@H](F)C4)nc(N3CCCCCC3)c2CO1 (single isomer, unassigned) [Compound 7] | > 10 µM | – |
| Oc1ccc2c(c1)C1(CCC2)Cc2nc(OC[C@@]34CCCN3C[C@H](F)C4)nc(N3CCCCCC3)c2CO1 (single isomer, unassigned) [Compound 8] | – | > 10 µM |
| O=C1NC(=O)C2(CCCN(c3nc(OC[C@@]45CCCN4C[C@H](F)C5)nc4c3COC3(CCc5c(Cl)cccc53)C4)C2)N1 (single isomer, unassigned) [Compound 24A, (5*)-9-[(7*)-4′-chloro-2-[[(2R,8S)-2-fluoro-1,2,3,5,6,7-hexahydropyrrolizin-8-yl]methoxy]spiro[5,8-dihydropyrano[4,3-d]pyrimidine-7,1′-indane]-4-yl]-1,3,9-triazaspiro[4.5]decane-2,4-dione] | 1 to 10 µM | – |
| F[C@H]1CN2CCC[C@@]2(COc2nc3c(c(N4CCCCCC4)n2)COC2(CCc4c(Cl)cccc42)C3)C1 (stereo partly drawn) [Compound 1, 4′-(azepan-1-yl)-4-chloro-2′-(((2R,7aS)-2-fluorotetrahydro-1H-pyrrolizin-7a(5H)-yl)methoxy)-2,3,5′,8′-tetrahydrospiro[indene-1,7′-pyrano[4,3-d]pyrimidine]] | > 10 µM | – |
| F[C@H]1CN2CCC[C@@]2(COc2nc3c(c(N4C[C@H]5CC[C@@H](C4)N5)n2)COC2(CCc4c(Cl)cccc42)C3)C1 (stereo partly drawn) [Compound 2, 4′-((1R,5S)-3,8-diazabicyclo[3.2.1]octan-3-yl)-4-chloro-2′-(((2R,7aS)-2-fluorotetrahydro-1H-pyrrolizin-7a(5H)-yl)methoxy)-2,3,5′,8′-tetrahydrospiro[indene-1,7′-pyrano[4,3-d]pyrimidine]] | 1 to 10 µM | – |
| OC1CCCN(c2nc(OC[C@@]34CCCN3C[C@H](F)C4)nc3c2COC2(CCCc4ccc(Br)cc42)C3)CC1 (stereo partly drawn) [Compound 4, 1-[7′-bromo-2-[[(2R,8S)-2-fluoro-1,2,3,5,6,7-hexahydropyrrolizin-8-yl]methoxy]spiro[5,8-dihydropyrano[4,3-d]pyrimidine-7,1′-tetralin]-4-yl]azepan-4-ol] | > 10 µM | – |
| F[C@H]1CN2CCC[C@@]2(COc2nc3c(c(N4CCCCCC4)n2)COC2(CCCc4c(Br)cccc42)C3)C1 (stereo partly drawn) [Compound 5, 4-(azepan-1-yl)-5′-bromo-2-[[(2R,8S)-2-fluoro-1,2,3,5,6,7-hexahydropyrrolizin-8-yl]methoxy]spiro[5,8-dihydropyrano[4,3-d]pyrimidine-7,1′-tetralin]] | > 10 µM | – |
| F[C@H]1CN2CCC[C@@]2(COc2nc3c(c(N4C[C@H]5CC[C@@H](C4)N5)n2)COC2(CCCc4c(Br)cccc42)C3)C1 (stereo partly drawn) [Compound 10, 5′-bromo-4-(3,8-diazabicyclo[3.2.1]octan-3-yl)-2-[[(2R,8S)-2-fluoro-1,2,3,5,6,7-hexahydropyrrolizin-8-yl]methoxy]spiro[5,8-dihydropyrano[4,3-d]pyrimidine-7,1′-tetralin]] | > 10 µM | – |
| Oc1ccc2c(c1)C1(CCC2)Cc2nc(OC[C@@]34CCCN3C[C@H](F)C4)nc(N3CCCC(O)CC3)c2CO1 (stereo partly drawn) [Compound 14, 2-[[(2S,8R)-2-fluoro-1,2,3,5,6,7-hexahydropyrrolizin-8-yl]methoxy]-4-(4-hydroxyazepan-1-yl)spiro[5,8-dihydropyrano[4,3-d]pyrimidine-7,4′-tetralin]-6′-ol] | > 10 µM | – |
| OC1CCCN(c2nc(OC[C@@]34CCCN3C[C@H](F)C4)nc3c2COC2(CCCc4c(Cl)cccc42)C3)CC1 (stereo partly drawn) [Compound 15, 1-[5′-chloro-2-[[(2R,8S)-2-fluoro-1,2,3,5,6,7-hexahydropyrrolizin-8-yl]methoxy]spiro[5,8-dihydropyrano[4,3-d]pyrimidine-7,1′-tetralin]-4-yl]azepan-4-ol] | > 10 µM | – |
| N#CC1CCCN(c2nc(OC[C@@]34CCCN3C[C@H](F)C4)nc3c2COC2(CCc4c(Cl)cccc42)C3)CC1 (stereo partly drawn) [Compound 16, 1-(4-chloro-2′-(((2R,7aS)-2-fluorotetrahydro-1H-pyrrolizin-7a(5H)-yl)methoxy)-2,3,5′,8′-tetrahydrospiro[indene-1,7′-pyrano[4,3-d]pyrimidin]-4′-yl)azepane-4-carbonitrile] | > 10 µM | – |
| OC1CCCN(c2nc(OC[C@@]34CCCN3C[C@H](F)C4)nc3c2COC2(CCCc4ccc(Cl)cc42)C3)CC1 (stereo partly drawn) [Compound 17, 1-(7-chloro-2′-(((2R,7aS)-2-fluorotetrahydro-1H-pyrrolizin-7a(5H)-yl)methoxy)-3,4,5′,8′-tetrahydro-2H-spiro[naphthalene-1,7′-pyrano[4,3-d]pyrimidin]-4′-yl)azepan-4-ol] | 1 to 10 µM | – |
| F[C@H]1CN2CCC[C@@]2(COc2nc3c(c(N4CCC=CCC4)n2)COC2(CCc4c(Cl)cccc42)C3)C1 (stereo partly drawn) [Compound 18, 4′-chloro-2-[[(2R,8S)-2-fluoro-1,2,3,5,6,7-hexahydropyrrolizin-8-yl]methoxy]-4-(2,3,6,7-tetrahydroazepin-1-yl)spiro[5,8-dihydropyrano[4,3-d]pyrimidine-7,1′-indane]] | > 10 µM | – |
| CN(C)C(=O)c1cc2n(n1)CCCN(c1nc(OC[C@@]34CCCN3C[C@H](F)C4)nc3c1CO[C@]1(CCc4c(Cl)cccc41)C3)C2 [Compound 27B, 5-[(7R)-4′-chloro-2-[[(2R,8S)-2-fluoro-1,2,3,5,6,7-hexahydropyrrolizin-8-yl]methoxy]spiro[5,8-dihydropyrano[4,3-d]pyrimidine-7,1′-indane]-4-yl]-N,N-dimethyl-4,6,7,8-tetrahydropyrazolo[1,5-a][1,4]diazepine-2-carboxamide] | – | 0.1 to 1 µM |
| CN1Cc2c(nc(OC[C@@]34CCCN3C[C@H](F)C4)nc2N2CCCCCC2)C[C@]12CCc1c(Cl)cccc12 [Compound 28A, (7S)-4-(azepan-1-yl)-4′-chloro-2-[[(2R,8S)-2-fluoro-1,2,3,5,6,7-hexahydropyrrolizin-8-yl]methoxy]-6-methyl-spiro[5,8-dihydropyrido[4,3-d]pyrimidine-7,1′-indane]] | > 10 µM | – |
| N#CNC1CCCN(c2nc(OC[C@@]34CCCN3C[C@H](F)C4)nc3c2COC2(CCc4c(Cl)cccc42)C3)C1 (stereo partly drawn) [Compound 29, [1-[4′-chloro-2-[[(2R,8S)-2-fluoro-1,2,3,5,6,7-hexahydropyrrolizin-8-yl]methoxy]spiro[5,8-dihydropyrano[4,3-d]pyrimidine-7,1′-indane]-4-yl]-3-piperidyl]cyanamide] | 1 to 10 µM | – |
| CN(C)C(=O)c1cc2n(n1)CCCN(c1nc(OC[C@@]34CCCN3C[C@H](F)C4)nc3c1CN(C)C1(CCCc4ccc(O)cc41)C3)C2 (stereo partly drawn) [Compound 39, 5-[7′-hydroxy-6-methyl-2-[[(2R,8S)-2-fluoro-1,2,3,5,6,7-hexahydropyrrolizin-8-yl]methoxy]spiro[5,8-dihydropyrido[4,3-d]pyrimidine-7,1′-tetralin]-4-yl]-N,N-dimethyl-4,6,7,8-tetrahydropyrazolo[1,5-a][1,4]diazepine-2-carboxamide] | 1 to 10 µM | – |
